# Laboratory results published in ChEMBL document CHEMBL1201862, “PubChem BioAssay data set” (2004).
# The source made the active and inactive calls.
# Legend:
# [1] = biological target: Sphingosine 1-phosphate receptor 2 (Homo sapiens, UniProt O95136); experiment: Dose Response Cell Based Assay for Antagonists of the S1P2 Receptor. [Related pubchem assays: 856, 736 ]; type: functional
# [2] = cytotoxicity in HEK-293T cells, dose response, cytotoxicity control for BCR NF-kB inhibitor project, luminescence, B-cell screen hits (AID 489021); type: functional, cell-based;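 note: HEK-293T cells carrying an NF-kB luciferase reporter; cells exposed to compound for about 14 hours before viability readout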
# [3] = Luminescence Cell-Based Dose Confirmation HTS to Identify Inhibitors of Polyadenylation.; type: functional
# [4] = system: Escherichia coli; experiment: microbe, parasite or virus in culture
# [5] = biological target: T1, Estrogen receptor (Homo sapiens, UniProt P03372);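 note: potency for inhibiting coactivator peptide recruitment to the receptor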
# T1 sequence (P03372 whole entry): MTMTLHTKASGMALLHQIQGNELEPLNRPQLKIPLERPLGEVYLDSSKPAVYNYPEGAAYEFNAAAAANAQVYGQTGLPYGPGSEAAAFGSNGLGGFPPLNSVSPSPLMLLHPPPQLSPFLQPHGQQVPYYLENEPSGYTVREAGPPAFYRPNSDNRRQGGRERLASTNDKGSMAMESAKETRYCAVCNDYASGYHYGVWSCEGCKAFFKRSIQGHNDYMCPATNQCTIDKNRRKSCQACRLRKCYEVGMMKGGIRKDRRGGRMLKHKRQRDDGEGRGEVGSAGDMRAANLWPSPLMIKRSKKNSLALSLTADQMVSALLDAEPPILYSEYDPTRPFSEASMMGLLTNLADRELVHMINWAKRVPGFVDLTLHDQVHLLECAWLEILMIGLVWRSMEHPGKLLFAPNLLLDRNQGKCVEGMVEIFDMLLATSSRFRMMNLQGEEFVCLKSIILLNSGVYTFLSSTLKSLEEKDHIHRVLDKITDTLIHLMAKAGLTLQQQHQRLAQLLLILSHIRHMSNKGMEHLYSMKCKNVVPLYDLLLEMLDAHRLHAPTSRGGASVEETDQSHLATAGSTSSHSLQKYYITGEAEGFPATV
# [6] = inhibitors of Vif binding to APOBEC3G peptide, primary screen, biochemical, TR-FRET, GST-Vif 1-94, biotin-A3G peptide, dose response retest (AID 1117319); type: functional;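 note: TR-FRET signal of purified GST-Vif binding a biotinylated A3G peptide; inhibitors lower the FRET signal by blocking Vif and A3G binding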
# [7] = biological target: T2, Histone-lysine N-methyltransferase NSD2 (Homo sapiens, UniProt O96028); type: biochemical
# T2 sequence (O96028 whole entry): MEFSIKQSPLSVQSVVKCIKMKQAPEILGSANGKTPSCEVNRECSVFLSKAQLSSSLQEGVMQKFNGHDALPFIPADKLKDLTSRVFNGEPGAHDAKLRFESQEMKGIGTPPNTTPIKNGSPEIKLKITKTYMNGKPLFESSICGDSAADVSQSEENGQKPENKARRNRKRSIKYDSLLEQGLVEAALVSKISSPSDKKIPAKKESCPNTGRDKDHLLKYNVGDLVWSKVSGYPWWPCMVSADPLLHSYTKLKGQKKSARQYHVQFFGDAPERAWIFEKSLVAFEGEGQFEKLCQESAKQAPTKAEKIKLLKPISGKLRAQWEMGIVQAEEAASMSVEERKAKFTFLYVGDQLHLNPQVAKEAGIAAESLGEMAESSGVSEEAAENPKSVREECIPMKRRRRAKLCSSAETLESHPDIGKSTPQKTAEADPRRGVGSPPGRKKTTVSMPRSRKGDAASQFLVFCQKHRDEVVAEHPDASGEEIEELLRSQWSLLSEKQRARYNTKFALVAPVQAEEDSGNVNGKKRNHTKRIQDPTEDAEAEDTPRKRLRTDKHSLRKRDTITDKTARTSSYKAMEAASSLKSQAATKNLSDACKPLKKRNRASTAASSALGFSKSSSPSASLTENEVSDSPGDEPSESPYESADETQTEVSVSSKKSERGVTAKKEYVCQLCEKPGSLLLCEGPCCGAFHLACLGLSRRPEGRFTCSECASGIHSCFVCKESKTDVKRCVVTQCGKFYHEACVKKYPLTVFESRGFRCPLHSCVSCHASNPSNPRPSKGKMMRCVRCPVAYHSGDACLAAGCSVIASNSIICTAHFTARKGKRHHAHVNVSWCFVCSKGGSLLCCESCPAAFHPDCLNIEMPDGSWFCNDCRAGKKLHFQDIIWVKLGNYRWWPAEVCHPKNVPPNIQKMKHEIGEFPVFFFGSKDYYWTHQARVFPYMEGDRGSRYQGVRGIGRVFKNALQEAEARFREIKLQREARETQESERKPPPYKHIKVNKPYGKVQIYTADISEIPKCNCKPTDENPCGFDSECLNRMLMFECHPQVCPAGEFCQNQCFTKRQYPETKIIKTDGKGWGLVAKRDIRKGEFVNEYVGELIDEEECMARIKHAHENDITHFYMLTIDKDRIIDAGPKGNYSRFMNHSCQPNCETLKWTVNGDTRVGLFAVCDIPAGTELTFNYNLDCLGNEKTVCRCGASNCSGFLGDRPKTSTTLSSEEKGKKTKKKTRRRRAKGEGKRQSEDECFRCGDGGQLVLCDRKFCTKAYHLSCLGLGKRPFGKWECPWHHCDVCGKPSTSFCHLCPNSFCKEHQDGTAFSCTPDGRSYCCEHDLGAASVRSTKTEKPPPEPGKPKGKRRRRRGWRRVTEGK
# [8] = biological target: Beta-galactosidase (Escherichia coli, UniProt Q8VNN2); experiment: beta-galactosidase enzyme inhibitors and activators, dose response, artefact control for CCR6 antagonist project, biochemical, E. coli enzyme, set 3 (AID 504712); type: functional
# [9] = cytotoxicity toward NIH3T3 fibroblasts, dose response, counter-screen, cell-based, ATP luminescence, mouse fibroblasts (AID 2010); type: functional;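 note: cells exposed to compound for about 90 hours before reading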
# [10] = inhibitors of intracellular T. cruzi replication, confirmation, NIH3T3 host cells, beta-gal luminescence (AID 2044); type: functional, cell-based;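 note: intracellular parasites grown in NIH/3T3 mouse fibroblasts as host cells; luminescent beta-galactosidase reporter signal from transgenic T. cruzi replicating inside host cells; inhibitors lower the luminescence signal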
# [11] = biological target: Mitogen-activated protein kinase 10 (Homo sapiens, UniProt P53779); experiment: Dose response biochemical screening assay for inhibitors of c-Jun N-Terminal Kinase 3 (JNK3). [Related pubchem assays: 746 ]
# [12] = inhibitors of SNCA 5'UTR-driven reporter translation, confirmation, H4 neuroglioma cells, luminescence (AID 1988); type: functional, cell-based
# [13] = inhibitors of firefly luciferase expression or activity, dose response, H4 neuroglioma cells, luminescence (AID 1990); type: functional, cell-based
# [14] = Luminescence Cell-Based Dose Response HTS to Identify Inhibitors of 5'UTR Stem-Loop Driven Prion Protein mRNA Translation in H4 Neuroglioblastoma Cells. [Related pubchem assays: 1827 (Project Summary), 1813 (Primary HTS)]; type: functional
# [15] = biological target: T3, Corticotropin-releasing factor receptor 2/Corticotropin-releasing factor-binding protein (Homo sapiens, UniProt P24387+Q13324); experiment: activators of CRF receptor 2 with binding protein – uHTS hits, confirmation (AID 602473); type: functional; conditions: read-out: EC50_Mean
# T3 sequence (Q13324 whole entry): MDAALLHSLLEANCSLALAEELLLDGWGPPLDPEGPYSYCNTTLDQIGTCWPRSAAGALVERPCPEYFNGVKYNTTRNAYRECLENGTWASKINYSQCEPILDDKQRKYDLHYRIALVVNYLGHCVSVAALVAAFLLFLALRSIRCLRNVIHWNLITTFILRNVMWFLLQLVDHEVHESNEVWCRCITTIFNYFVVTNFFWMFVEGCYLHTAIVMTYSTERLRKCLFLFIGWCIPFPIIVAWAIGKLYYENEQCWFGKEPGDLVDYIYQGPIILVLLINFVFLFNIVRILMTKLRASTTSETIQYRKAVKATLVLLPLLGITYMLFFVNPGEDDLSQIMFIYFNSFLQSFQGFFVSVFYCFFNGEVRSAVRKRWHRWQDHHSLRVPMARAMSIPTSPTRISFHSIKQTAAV
# T3 sequence (P24387 whole entry): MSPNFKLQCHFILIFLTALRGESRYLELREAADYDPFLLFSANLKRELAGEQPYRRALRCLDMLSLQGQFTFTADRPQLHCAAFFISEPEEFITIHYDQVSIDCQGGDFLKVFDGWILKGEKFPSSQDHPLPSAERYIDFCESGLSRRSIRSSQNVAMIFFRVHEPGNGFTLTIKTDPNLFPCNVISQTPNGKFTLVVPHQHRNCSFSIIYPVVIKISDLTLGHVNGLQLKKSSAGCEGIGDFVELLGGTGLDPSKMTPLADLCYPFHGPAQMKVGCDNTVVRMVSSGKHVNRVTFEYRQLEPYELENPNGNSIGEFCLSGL
# [16] = A549 cell cytotoxicity, dose response, cytotoxicity control, plate reader, cherry-pick, antagonist series (AID 743412); type: functional, cell-based
# [17] = system: Cryptococcus neoformans; experiment: PubChem AID 686997; type: functional, organism-based; conditions: Cryptococcus neoformans
# [18] = HEK293 Cytotoxicity Assay Measured in Cell-Based System Using Plate Reader - 7071-01_Inhibitor_Dose_CherryPick_Activity_Set2.; type: functional
# [19] = system: HEK293; experiment: HEK293T cell cytotoxicity, dose response, cytotoxicity control, ATP luminescence, cherry-pick samples (AID 687005); type: functional, cell-based; conditions: Homo sapiens;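 note: cells exposed to compound for 48 hours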
# [20] = system: HeLa; experiment: HeLa cell cytotoxicity, dose response, cytotoxicity control, ATP luminescence, cherry-pick samples (AID 687004); type: functional, cell-based; conditions: Homo sapiens
# [21] = biological target: Voltage-gated N-type calcium channel alpha-1B subunit/Amyloid beta A4 precursor protein-binding family A member 1 (Homo sapiens, UniProt Q00975+Q02410); type: protein assay
# [22] = biological target: Disintegrin and metalloproteinase domain-containing protein 17 (Homo sapiens, UniProt P78536); experiment: exosite inhibitors of ADAM17, dose response, biochemical (AID 743260)
# [23] = ADAM10 protease inhibitors, dose response, selectivity assay for ADAM17 exosite inhibitor project, biochemical, FRET peptide substrate, recombinant human ADAM10 (AID 743259);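 note: ADAM10 enzyme cleaving a FRET peptide substrate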
# [24] = biological target: Estrogen receptor beta (Homo sapiens, UniProt Q92731); experiment: ERβ–SRC-3 coactivator interaction inhibitors, confirmation, orthogonal assay, biochemical, ELISA, streptavidin-HRP readout (AID 1060)
# [25] = biological target: T4, Dual specificity protein phosphatase 6 (Rattus norvegicus, UniProt Q64346); experiment: MKP-3 phosphatase inhibitors, primary screen, biochemical, rat enzyme, in vitro (AID 425)
# T4 sequence (Q64346 whole entry): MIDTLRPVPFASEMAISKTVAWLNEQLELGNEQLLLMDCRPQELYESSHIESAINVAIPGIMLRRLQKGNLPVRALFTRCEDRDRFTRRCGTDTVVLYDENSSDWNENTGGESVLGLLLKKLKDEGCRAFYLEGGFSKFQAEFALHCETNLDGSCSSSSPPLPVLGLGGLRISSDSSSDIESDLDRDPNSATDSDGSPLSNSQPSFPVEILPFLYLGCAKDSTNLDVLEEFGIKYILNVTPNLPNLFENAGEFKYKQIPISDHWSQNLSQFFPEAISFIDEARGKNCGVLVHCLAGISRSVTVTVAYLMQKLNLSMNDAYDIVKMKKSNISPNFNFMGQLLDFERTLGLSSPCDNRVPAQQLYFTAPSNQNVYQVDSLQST
# Sequence of Sphingosine 1-phosphate receptor 2 (O95136 whole entry): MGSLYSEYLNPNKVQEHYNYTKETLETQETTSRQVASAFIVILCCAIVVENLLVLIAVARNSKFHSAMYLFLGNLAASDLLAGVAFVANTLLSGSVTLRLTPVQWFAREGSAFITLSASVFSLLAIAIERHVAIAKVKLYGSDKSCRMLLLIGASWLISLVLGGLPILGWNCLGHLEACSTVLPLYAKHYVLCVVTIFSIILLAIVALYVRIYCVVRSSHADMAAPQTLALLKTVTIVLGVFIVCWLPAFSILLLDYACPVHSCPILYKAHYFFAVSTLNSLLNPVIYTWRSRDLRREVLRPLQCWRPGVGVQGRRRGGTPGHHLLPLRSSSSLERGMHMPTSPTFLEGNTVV
# Sequence of Mitogen-activated protein kinase 10 (P53779 whole entry): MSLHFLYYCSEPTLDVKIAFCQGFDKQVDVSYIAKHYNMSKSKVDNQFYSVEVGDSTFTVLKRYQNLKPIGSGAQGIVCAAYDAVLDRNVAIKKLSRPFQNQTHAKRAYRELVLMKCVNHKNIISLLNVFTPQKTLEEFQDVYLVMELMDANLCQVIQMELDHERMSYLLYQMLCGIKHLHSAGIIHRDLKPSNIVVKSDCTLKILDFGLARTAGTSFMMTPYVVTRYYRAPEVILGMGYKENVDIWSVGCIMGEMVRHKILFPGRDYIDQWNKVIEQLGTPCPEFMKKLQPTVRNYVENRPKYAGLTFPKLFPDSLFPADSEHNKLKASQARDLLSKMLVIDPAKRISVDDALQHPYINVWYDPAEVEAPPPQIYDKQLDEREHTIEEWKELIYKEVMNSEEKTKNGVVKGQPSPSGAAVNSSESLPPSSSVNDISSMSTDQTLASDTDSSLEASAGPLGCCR
# Sequence of Beta-galactosidase (Q8VNN2 whole entry): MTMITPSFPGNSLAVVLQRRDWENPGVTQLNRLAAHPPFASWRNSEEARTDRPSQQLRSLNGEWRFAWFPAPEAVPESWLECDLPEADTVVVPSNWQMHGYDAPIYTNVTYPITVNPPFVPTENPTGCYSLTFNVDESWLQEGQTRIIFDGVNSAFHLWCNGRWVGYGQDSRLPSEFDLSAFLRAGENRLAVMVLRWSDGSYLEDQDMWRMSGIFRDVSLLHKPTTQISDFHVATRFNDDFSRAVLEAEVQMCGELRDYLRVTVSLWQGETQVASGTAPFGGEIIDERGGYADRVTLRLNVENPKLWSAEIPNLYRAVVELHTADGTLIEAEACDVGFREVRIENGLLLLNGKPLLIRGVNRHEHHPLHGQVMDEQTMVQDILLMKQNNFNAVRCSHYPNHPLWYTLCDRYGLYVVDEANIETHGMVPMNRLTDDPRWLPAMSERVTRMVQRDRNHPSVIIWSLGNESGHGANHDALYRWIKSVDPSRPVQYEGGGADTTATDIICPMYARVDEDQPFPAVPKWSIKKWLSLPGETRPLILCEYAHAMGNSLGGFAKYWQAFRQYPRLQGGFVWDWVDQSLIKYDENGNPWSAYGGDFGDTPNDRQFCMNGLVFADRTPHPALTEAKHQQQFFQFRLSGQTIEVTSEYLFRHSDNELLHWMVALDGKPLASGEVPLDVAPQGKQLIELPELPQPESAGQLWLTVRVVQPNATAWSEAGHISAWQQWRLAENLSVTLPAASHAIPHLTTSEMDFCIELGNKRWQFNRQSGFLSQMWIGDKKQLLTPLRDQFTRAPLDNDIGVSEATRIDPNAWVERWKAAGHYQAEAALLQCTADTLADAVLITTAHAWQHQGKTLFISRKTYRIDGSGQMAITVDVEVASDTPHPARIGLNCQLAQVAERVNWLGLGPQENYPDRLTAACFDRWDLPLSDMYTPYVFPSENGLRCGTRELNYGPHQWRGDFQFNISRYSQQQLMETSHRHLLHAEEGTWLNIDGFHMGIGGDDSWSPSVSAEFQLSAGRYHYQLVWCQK
# Sequence of Estrogen receptor beta (Q92731 whole entry): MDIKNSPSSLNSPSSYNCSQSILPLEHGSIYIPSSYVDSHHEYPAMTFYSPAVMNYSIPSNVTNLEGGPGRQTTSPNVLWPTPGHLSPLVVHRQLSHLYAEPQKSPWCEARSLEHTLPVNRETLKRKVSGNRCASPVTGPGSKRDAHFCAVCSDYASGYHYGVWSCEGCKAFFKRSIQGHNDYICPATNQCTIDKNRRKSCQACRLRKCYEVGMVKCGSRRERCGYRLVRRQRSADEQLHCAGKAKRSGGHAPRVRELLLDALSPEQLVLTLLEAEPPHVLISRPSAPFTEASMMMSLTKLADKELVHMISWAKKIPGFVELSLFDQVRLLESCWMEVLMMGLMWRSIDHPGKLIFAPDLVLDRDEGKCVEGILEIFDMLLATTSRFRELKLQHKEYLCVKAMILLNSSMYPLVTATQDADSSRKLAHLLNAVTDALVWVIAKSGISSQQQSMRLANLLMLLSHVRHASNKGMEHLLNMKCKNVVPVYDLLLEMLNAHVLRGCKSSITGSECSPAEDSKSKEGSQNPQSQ
# Sequence of Disintegrin and metalloproteinase domain-containing protein 17 (P78536 whole entry, the tested form may be a part): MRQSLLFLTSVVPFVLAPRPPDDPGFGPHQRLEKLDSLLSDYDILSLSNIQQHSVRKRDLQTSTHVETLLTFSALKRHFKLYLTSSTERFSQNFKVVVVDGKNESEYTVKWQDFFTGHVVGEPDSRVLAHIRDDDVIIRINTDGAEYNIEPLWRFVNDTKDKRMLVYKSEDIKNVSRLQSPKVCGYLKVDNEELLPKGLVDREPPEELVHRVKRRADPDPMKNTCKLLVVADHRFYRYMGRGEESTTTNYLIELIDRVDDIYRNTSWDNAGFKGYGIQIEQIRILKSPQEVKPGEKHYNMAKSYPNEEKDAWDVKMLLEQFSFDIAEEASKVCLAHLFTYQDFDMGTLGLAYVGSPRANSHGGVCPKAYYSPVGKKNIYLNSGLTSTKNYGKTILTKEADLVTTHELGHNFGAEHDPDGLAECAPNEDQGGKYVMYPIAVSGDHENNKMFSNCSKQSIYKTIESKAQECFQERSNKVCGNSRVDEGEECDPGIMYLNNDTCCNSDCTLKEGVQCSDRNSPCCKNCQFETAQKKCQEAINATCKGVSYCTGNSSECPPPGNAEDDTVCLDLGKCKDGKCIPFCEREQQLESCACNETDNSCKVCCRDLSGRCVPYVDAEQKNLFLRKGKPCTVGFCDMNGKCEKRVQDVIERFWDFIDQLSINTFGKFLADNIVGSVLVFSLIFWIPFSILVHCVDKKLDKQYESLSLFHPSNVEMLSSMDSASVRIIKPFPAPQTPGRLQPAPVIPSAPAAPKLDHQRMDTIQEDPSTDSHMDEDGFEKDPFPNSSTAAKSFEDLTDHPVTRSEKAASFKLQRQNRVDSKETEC
structure (smiles),measurement,setting,value
Cc1ccsc1C(=O)Nc1ccc(F)cc1,IC50,[1],> 30 µM (not active)
CCC(C)[C@H](N)c1nnc(SCC(=O)c2ccc(Cl)cc2)o1 (some centres not stated),IC50,[2],> 80 µM (inactive)
O=C1c2cnc3nc(SCc4ccccc4)nn3c2CC2c3ccccc3CCN12 (configuration not stated),EC50,[3],> 120 µM (not active)
Cc1ccc(NC(=O)/C(=C/c2cccc([N+](=O)[O-])c2)NC(=O)C2CCCCC2)c(C)c1,AC50,[4],62.4 µM (active)
same,IC50,[5],> 50 µM (not active)
same,EC50,[3],> 120 µM (not active)
FC(F)(F)c1cnc2c(-c3cccs3)csc2c1,IC50,[1],> 30 µM (not active)
Cc1ccc(S(=O)(=O)CCC(=O)Nc2ccc3c(c2)OCO3)cc1,IC50,[6],> 100 µM (active)
CCN(CC)c1ccc(C2C3CCCCC3(O)CCN2CC(=O)Nc2ccccc2)cc1 (configuration not stated),IC50,[6],> 100 µM (active)
O=C(Nc1cccc(Oc2ccc3c(c2)C(=O)NC3=O)c1)c1cccs1,IC50,[2],> 80 µM (inactive)
CCN1CCCC1CNc1[nH]cnc2c3cc(F)ccc3nc1-2 (configuration not stated),AC50,[7],> 20 µM (inactive)
O=C1c2cccc3c([N+](=O)[O-])ccc(c23)C(=O)N1Cc1cccnc1,IC50,[8],16.8 µM (active)
same,EC50,[9],9.5 µM (active)
same,EC50,[10],3.67 µM (active)
CCCc1nc(SCC(=O)N2CCCC2)c2ccccc2n1,IC50,[11],50.4 µM (not active)
COc1ccccc1NC(=O)COc1ccc(CO)cc1Cl,IC50,[11],68.6 µM (not active)
O=C(Oc1coc(CSc2ncccn2)cc1=O)c1ccc(Br)o1,EC50,[3],> 120 µM (not active)
Cc1cc(C)cc(NC(=O)c2nnn(Cc3cc(C)ccc3C)c2N)c1,EC50,[12],18.2 µM (active)
same,IC50,[2],> 80 µM (inactive)
same,EC50,[13],13.6 µM (active)
same,EC50,[14],39.8 µM (active)
same,EC50,[15],8.37 µM (active)
O=C(Nc1ccc(F)cc1)c1cc(-c2cccs2)nc2ccccc12,IC50,[1],> 30 µM (not active)
COC(=O)C1=C(C(=O)OC)C(C(=O)OC)C(C(=O)OC)C(C(=O)OC)(C(=O)OC)C(C(=O)OC)=C1C(=O)OC (configuration not stated),IC50,[8],> 66.6 µM (inactive)
C[C@H](CO)N1C[C@H](C)[C@@H](CN(C)C(=O)Nc2ccc3c(c2)OCO3)Oc2c(cccc2N(C)C)C1=O,AC50,[16],> 52 µM (inactive)
COC(=O)C1=C(C)N(Cc2ccccc2)C(=S)NC1c1cccc(Br)c1 (configuration not stated),AC50,[17],36.5 µM (active)
same,AC50,[18],33.6 µM (active)
same,AC50,[19],33.6 µM (active)
O=C(Nc1ccccc1)N1CCCCN2[C@H](CO)[C@@H](c3ccc(C#CC4CC4)cc3)[C@@H]2C1,AC50,[18],14.4 µM (active)
same,AC50,[20],> 52 µM (inactive)
same,AC50,[19],14.4 µM (active)
O=C(N/N=C/c1ccc([N+](=O)[O-])cc1)c1cc(-c2ccc3c(c2)OCO3)[nH]n1,IC50,[21],7.27 µM (active)
CC1CN(S(=O)(=O)c2ccc(NC(=O)c3cc(-c4ccccc4O)n[nH]3)cc2)CC(C)O1 (configuration not stated),IC50,[22],> 69.5 µM (inactive)
same,IC50,[23],> 69.5 µM (inactive)
O=C(O)C(O)c1ccco1 (configuration not stated),IC50,[5],> 50 µM (not active)
same,IC50,[24],3.23 µM (not active)
same,IC50,[25],3.73 µM (active)
